{"source": "patent US20050148616A1", "about": "“Inhibitor of TNF-alpha and IL-1beta production” (priority 2003, published 2005)", "key": {"TNF-α": {"test_system": "TNF-α", "assay": "LPS-induced TNF-α production in human normal PBMCs (ELISA)", "type": "cell-based", "procedure": "(§1) PBMCs were isolated from fresh blood using a Ficoll-Paque Plus reagent (Amersham Bioscience) according to the protocol recommended by the manufacturer. The cells were suspended in a RPMI 1640 medium containing 10% FBS at a concentration of 1×10^5 cells/ml and seeded in a 96-well plate (1×10^4 cells total in each well). Each reaction was carried out in three wells.\n(§2) 10 μl of pseudolycorine hydrochloride in DMSO was added to wells to obtain the final concentrations at 0.1, 0.3, 1, 3, 10, 30, and 100 μg/ml. In a positive control, dexamethason (DEX), an anti-inflammatory agent, instead of pseudolycorine hydrochloride, was added (final concentration 10 μM). In a negative control, 10 μl of the medium, instead of pseudolycorine hydrochloride, was added. The plate was placed in a 5% CO2 incubator at 37° C. for 15 minutes. After 10 μl aliquots of 100 μg/ml of LPS were added to all wells except for the negative control, the plate was placed in a 5% CO2 incubator at 37° C. overnight.\n(§3) The plate was spun at 1000 rpm for 15 minutes and the supernatants were collected. The concentrations of TNF-α and IL-1β were measured by the TNF-α ELISA (Enzyme Linked Immunosorbent Assay) Kit and IL-1β ELISA Kit (Jingmei Bioengineer Technology). The inhibition ratios of TNF-α and IL-1β were calculated as follows: TNF-α Inhibition Ratio (%)=[TNF-α]control−[TNF-α]PHCl/[TNF-α]control×100% IL-1β Inhibition Ratio (%)=[IL-1β]control−[IL-1β]PHCl/[IL-1β]control×100% where [TNF-α]PHCl is the concentration of TNF-α in PBMCs treated with pseudolycorine hydrochloride and LPS, [TNF-α]control is the concentration of TNF-α in PBMCs treated with LPS and the medium, [IL-1β]PHCl is the concentration of IL-1β in PBMCs treated with pseudolycorine hydrochloride and LPS, and [IL-1β]control is the concentration of IL-1β in PBMCs treated with LPS and the medium."}, "IL-1β": {"test_system": "IL-1β", "assay": "LPS-induced IL-1β production in human normal PBMCs (ELISA)", "type": "cell-based", "procedure": "as §1, §2, §3"}, "[1]": {"conditions": "compared with dexamethason (DEX) at 10 μM, LPS-stimulated human PBMCs"}}, "note": "Where a name gives a salt, the structure may show the parent alone."}
{"smiles": "COc1cc2c(cc1O)[C@@H]1[C@H](O)[C@@H](O)C=C3CCN(C2)[C@H]31", "note": "[pseudolycorine hydrochloride]", "values": [{"measurement": "inhibition of expression of TNF-α, concentration dependence", "setting": "TNF-α; 0.1-100 μg/ml, FIG. 3", "value": "concentration-dependent manner"}, {"measurement": "concentration at which expression of TNF-α was inhibited", "setting": "TNF-α; LPS-stimulated human PBMCs, overnight, ELISA of supernatant, FIG. 1", "value": "≥ 0.3", "unit": "µg/mL"}, {"measurement": "concentration at which expression of TNF-α was inhibited more effectively than DEX", "setting": "TNF-α; [1]", "value": "≥ 3", "unit": "µg/mL"}, {"measurement": "inhibition of expression of IL-1β, concentration dependence", "setting": "IL-1β; 0.1-100 μg/ml, FIG. 4", "value": "concentration-dependent manner"}, {"measurement": "concentration at which expression of IL-1β was inhibited", "setting": "IL-1β; LPS-stimulated human PBMCs, overnight, ELISA of supernatant, FIG. 2", "value": "≥ 1", "unit": "µg/mL"}, {"measurement": "concentration at which expression of IL-1β was inhibited more effectively than DEX", "setting": "IL-1β; [1]", "value": "≥ 10", "unit": "µg/mL"}]}
